# Assay results as given in ChEMBL document CHEMBL1201862, “PubChem BioAssay data set” (2004).
# pIC50: −log10 of the molar value. Active and inactive are the calls of the source.
# Assays:
# [1] = biological target: T1, Dual specificity protein phosphatase 6 (Rattus norvegicus, UniProt Q64346); assay: MKP-3 phosphatase inhibitors, primary screen, biochemical, rat enzyme, in vitro (AID 425)
# T1 sequence (Q64346 whole entry): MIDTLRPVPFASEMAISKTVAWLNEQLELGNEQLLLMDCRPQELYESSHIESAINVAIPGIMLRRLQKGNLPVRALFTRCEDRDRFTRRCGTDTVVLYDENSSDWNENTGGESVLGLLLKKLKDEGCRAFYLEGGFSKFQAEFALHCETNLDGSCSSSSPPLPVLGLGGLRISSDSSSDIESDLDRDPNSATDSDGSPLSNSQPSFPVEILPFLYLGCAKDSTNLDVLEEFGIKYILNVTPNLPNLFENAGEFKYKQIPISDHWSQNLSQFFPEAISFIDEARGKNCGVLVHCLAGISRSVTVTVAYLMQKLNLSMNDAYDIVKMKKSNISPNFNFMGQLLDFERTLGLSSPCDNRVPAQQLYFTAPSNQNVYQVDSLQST
# [2] = biological target: Voltage-gated N-type calcium channel alpha-1B subunit/Amyloid beta A4 precursor protein-binding family A member 1 (Homo sapiens, UniProt Q00975+Q02410); assay type: protein assay
# Voltage-gated N-type calcium channel alpha-1B subunit/Amyloid beta A4 precursor protein-binding family A member 1, sequence (Q00975 whole entry): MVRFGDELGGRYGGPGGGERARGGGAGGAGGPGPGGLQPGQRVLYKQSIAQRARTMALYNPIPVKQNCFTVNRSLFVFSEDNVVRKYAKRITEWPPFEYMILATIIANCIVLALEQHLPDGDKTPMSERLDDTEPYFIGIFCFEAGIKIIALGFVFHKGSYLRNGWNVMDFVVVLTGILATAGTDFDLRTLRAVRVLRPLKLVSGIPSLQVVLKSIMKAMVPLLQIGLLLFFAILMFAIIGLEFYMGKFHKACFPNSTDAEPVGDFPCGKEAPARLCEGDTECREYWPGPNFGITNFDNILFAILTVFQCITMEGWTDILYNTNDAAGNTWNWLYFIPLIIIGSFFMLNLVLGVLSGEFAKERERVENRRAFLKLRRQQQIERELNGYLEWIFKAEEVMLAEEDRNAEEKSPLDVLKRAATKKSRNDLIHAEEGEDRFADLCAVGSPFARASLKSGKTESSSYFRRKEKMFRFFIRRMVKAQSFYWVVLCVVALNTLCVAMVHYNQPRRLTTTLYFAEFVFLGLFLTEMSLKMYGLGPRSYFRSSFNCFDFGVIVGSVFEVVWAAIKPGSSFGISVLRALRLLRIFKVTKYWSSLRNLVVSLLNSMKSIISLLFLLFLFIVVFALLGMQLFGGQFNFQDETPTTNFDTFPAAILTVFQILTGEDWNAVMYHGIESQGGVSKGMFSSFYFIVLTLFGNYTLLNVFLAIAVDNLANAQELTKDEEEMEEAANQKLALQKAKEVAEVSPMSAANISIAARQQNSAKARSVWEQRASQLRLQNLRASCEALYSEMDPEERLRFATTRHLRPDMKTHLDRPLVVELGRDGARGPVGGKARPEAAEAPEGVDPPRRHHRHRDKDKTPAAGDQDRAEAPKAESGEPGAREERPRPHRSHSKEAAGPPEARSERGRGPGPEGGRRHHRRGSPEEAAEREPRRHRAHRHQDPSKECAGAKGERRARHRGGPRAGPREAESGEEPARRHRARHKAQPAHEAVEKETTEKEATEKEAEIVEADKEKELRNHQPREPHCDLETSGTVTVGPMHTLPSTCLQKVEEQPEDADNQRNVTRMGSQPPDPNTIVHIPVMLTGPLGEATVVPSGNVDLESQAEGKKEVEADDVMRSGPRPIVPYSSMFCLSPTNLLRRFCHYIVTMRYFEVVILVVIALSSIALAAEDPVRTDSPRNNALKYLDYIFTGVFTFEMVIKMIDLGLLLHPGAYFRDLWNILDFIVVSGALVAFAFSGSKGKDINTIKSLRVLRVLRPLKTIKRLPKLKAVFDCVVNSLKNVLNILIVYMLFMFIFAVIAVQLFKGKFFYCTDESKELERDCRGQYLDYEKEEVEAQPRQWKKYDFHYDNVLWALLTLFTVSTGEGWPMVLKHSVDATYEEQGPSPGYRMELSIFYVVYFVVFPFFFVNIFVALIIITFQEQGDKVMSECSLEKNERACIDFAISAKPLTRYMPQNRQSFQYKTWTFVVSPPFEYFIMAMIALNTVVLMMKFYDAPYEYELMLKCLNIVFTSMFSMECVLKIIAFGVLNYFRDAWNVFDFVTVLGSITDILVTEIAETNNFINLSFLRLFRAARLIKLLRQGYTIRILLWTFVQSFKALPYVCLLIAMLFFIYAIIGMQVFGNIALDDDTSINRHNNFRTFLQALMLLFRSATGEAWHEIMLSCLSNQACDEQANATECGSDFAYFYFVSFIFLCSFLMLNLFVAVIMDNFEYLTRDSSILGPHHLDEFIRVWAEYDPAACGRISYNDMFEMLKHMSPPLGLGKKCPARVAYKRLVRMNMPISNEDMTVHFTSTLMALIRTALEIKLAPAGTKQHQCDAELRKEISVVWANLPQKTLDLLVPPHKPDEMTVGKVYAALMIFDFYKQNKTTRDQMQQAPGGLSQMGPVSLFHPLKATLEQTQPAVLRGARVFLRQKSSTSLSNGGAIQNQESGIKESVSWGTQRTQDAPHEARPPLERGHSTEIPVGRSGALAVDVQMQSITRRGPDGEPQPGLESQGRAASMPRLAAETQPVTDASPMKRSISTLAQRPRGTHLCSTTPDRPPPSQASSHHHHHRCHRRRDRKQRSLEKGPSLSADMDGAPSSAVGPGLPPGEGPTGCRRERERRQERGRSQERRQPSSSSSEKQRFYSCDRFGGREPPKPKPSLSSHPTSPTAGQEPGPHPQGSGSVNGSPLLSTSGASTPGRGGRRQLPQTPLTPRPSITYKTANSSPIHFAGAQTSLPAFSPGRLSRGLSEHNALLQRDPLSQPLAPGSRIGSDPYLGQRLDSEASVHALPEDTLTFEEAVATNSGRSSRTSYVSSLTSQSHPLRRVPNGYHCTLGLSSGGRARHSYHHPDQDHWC
# Voltage-gated N-type calcium channel alpha-1B subunit/Amyloid beta A4 precursor protein-binding family A member 1, sequence (Q02410 whole entry): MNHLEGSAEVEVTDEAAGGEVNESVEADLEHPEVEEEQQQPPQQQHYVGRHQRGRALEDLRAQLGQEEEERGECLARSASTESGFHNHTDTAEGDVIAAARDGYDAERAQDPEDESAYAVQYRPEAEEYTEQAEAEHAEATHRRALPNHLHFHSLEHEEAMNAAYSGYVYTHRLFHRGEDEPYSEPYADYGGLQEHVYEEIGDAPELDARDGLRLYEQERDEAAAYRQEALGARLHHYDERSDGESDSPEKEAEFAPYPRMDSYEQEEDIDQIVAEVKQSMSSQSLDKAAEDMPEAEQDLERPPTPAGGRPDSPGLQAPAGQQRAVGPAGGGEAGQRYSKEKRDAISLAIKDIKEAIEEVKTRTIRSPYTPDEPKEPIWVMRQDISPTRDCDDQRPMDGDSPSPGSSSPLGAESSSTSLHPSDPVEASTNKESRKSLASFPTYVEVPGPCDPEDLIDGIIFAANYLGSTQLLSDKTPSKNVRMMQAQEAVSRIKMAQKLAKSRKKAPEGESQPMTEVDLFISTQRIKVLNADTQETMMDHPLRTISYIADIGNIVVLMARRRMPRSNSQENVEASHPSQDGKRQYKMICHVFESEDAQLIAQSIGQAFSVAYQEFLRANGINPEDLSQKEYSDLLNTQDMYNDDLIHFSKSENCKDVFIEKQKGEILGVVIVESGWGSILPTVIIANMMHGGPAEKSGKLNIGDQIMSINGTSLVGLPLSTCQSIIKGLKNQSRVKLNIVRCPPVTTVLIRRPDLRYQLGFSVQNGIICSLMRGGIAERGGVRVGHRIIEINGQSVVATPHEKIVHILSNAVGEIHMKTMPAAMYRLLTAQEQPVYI
# [3] = biological target: T2, Calpain-2 catalytic subunit (Sus scrofa, UniProt P43367); assay: pig calpain II inhibitor potency, dose response, biochemical, fluorogenic peptide substrate (AID 1420); assay type: functional
# T2 sequence (P43367 whole entry): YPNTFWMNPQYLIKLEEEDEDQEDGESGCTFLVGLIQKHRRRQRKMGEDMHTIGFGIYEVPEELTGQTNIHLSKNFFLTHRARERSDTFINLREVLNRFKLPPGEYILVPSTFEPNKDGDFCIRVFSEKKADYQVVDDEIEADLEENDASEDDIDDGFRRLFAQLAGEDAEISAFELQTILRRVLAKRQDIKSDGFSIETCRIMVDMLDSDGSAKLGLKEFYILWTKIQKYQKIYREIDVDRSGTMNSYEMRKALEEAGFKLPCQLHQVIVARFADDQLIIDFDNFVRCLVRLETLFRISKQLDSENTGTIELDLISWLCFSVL
# [4] = HEp-2 cell cytotoxicity, dose response, cytotoxicity control for RSV inhibitor project, HTS (AID 2410); assay type: functional; settings: human respiratory syncytial virus
# [5] = biological target: Eukaryotic translation initiation factor 4E (Mus musculus, UniProt P63073); assay: eIF4E–eIF4G protein interaction inhibitors, dose response, biochemical, TR-FRET (AID 855); assay type: functional;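 further: potency for disrupting eIF4E binding to eIF4GI seen as loss of FRET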
# Eukaryotic translation initiation factor 4E, sequence (P63073 whole entry): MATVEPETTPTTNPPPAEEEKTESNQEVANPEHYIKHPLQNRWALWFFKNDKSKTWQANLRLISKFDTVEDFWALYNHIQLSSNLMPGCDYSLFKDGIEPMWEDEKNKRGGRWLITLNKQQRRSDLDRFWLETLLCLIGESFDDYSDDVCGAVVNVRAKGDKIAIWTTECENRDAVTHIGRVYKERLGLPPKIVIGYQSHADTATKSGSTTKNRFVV
# [6] = biological target: T3, Dual specificity protein phosphatase 3 (Homo sapiens, UniProt P51452); assay: VHR1 phosphatase inhibitors, primary screen, biochemical, absorbance, uHTS (AID 1654)
# T3 sequence (P51452 whole entry): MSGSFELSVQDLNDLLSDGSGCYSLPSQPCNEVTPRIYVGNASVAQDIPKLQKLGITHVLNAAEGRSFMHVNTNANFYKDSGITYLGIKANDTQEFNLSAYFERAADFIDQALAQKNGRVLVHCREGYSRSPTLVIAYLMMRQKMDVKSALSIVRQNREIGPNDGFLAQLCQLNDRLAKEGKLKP
# [7] = biological target: T3, Dual specificity protein phosphatase 3; assay: VHR1 phosphatase inhibitors, biochemical (AID 1878)
# [8] = inhibitors of firefly luciferase expression or activity, dose response, H4 neuroglioma cells, luminescence (AID 1990); assay type: functional, cell-based
# [9] = test system: INS1; assay: beta cell apoptosis inhibitors, cytokine rescue, dose response, luminescence, retest (AID 449756); assay type: functional, cell-based; settings: Rattus norvegicus;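 further: cell death triggered by IL-1 beta plus TNF-alpha plus IFN-gamma mixture; protective hits raise ATP signal compared with cytokine alone wells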
# [10] = biological target: Beta-galactosidase (Escherichia coli, UniProt Q8VNN2); assay type: functional
# [11] = control 3'UTR Renilla luciferase suppression, dose response, counter-screen for Shn3 inhibitor project, cell-based, Clone20-Shn3RL, cherry-picked (AID 624133); assay type: functional
# [12] = biological target: T4, Delta-type opioid receptor (Homo sapiens, UniProt P41143); assay: HTS Image-Based Screen for Antagonists of the DOR Receptor. [Related pubchem assays (depositor defined):AID1777, AID1785, AID1786, AID2133]; assay type: functional
# T4 sequence (P41143 whole entry): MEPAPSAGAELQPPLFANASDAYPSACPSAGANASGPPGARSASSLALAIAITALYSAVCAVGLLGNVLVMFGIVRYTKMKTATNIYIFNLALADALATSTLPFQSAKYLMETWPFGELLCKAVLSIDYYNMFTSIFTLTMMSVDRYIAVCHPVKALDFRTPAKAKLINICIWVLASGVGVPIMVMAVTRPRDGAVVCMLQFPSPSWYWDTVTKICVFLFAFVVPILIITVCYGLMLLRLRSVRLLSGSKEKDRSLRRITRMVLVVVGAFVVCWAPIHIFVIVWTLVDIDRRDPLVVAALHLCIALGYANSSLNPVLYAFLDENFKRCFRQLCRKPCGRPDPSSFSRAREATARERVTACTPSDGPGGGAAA
# [13] = cells; assay type: functional, cell-based
# [14] = cytotoxicity toward NIH3T3 fibroblasts, dose response, counter-screen, cell-based, ATP luminescence, mouse fibroblasts (AID 2010); assay type: functional;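 further: cells exposed to compound for about 90 hours before reading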
# [15] = test system: Streptococcus; assay: Group A Streptococcus viability loss, dose response, counter-screen for streptokinase expression inhibitor project, luminescence, BacTiterGlo (AID 1915); assay type: functional, organism-based;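 further: potency for reduction of bacterial viability or growth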
# [16] = growth suppression of beta-catenin-knockout colon cells, dose response, cell-based, HCT116, human colon tumor (AID 1045); assay type: functional;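 further: HCT116 colon tumor cells with beta catenin knocked out; cells exposed to compound for 60 hours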
# [17] = inhibitors of SNCA 5'UTR-driven reporter translation, confirmation, H4 neuroglioma cells, luminescence (AID 1988); assay type: functional, cell-based
# [18] = biological target: T5, Kappa-type opioid receptor (Homo sapiens, UniProt P41145); assay type: functional
# T5 sequence (P41145 whole entry): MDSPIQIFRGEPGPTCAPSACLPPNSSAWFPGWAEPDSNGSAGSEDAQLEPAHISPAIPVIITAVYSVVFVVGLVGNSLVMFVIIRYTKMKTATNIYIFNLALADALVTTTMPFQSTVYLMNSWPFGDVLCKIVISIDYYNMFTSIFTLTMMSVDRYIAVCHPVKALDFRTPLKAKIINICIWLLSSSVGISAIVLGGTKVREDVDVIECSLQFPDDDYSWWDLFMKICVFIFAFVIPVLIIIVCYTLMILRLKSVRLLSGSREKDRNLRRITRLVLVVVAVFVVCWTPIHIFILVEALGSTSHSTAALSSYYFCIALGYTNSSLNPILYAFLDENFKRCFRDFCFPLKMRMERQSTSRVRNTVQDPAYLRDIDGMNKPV
# [19] = biological target: T6, Short transient receptor potential channel 4 (Mus musculus, UniProt Q9QUQ5); assay: mouse TRPC4 channel inhibitors, dose response, cell-based, HEK293 TRPC4/mu-opioid, Fluo-4 calcium (AID 434942); assay type: functional;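 further: potency of inhibitors blocking the TRPC4 calcium response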
# T6 sequence (Q9QUQ5 whole entry): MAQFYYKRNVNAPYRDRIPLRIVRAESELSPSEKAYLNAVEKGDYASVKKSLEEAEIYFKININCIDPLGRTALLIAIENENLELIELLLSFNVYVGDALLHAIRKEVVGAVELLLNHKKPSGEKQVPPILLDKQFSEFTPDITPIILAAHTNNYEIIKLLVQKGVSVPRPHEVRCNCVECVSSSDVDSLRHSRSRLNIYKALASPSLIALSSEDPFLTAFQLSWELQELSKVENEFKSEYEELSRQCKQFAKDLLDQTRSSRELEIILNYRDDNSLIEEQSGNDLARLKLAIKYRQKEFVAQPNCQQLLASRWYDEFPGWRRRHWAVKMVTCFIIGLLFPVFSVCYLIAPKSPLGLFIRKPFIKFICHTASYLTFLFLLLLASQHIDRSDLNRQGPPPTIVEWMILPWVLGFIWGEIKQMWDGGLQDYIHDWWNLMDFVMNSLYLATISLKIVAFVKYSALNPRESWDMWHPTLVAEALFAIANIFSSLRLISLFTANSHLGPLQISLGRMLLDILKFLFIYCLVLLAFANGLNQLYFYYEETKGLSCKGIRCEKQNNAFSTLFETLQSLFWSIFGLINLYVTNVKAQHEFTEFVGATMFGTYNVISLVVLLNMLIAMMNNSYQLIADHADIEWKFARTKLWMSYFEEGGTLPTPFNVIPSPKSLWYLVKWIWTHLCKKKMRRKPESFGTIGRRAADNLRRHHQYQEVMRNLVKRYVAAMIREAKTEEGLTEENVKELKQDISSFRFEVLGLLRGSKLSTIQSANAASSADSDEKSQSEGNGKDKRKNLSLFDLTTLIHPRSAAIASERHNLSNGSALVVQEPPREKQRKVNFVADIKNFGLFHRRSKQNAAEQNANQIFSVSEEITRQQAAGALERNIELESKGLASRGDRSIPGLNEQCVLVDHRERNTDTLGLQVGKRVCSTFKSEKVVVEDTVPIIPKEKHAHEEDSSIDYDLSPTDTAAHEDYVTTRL
# [20] = biological target: Nonstructural protein 1 (Influenza A virus, UniProt Q194T2); assay type: functional, Influenza A virus (A/California/07/2009(H1N1))
# Nonstructural protein 1, sequence (Q194T2 whole entry): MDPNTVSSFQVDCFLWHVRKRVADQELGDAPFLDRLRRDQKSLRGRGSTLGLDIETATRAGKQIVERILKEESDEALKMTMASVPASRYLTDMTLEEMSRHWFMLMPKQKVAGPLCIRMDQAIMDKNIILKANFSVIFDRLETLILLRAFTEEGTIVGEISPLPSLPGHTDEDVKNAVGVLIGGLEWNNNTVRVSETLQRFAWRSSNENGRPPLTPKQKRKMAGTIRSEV
# [21] = biological target: Mu-type opioid receptor (Homo sapiens, UniProt P35372); assay: HTS Image-Based Screen for Agonists of the MOR Receptor. [Related pubchem assays (depositor defined):AID1777, AID1785, AID1786, AID2133]; assay type: functional;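 further: imaging of beta-arrestin GFP recruitment into spots after receptor activation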
# Mu-type opioid receptor, sequence (P35372 whole entry): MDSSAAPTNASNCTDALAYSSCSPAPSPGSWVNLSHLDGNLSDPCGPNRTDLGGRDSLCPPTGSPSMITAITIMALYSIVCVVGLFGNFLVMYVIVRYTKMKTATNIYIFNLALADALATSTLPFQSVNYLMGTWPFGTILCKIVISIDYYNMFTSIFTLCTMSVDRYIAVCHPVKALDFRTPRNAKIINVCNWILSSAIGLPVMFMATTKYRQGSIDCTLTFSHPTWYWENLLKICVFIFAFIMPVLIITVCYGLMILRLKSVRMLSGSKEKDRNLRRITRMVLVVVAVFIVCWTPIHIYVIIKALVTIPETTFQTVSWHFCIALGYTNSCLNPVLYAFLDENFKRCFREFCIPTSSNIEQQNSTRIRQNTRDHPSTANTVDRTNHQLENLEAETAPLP
# [22] = HepG2 cell cytotoxicity, dose response, cytotoxicity control for Shn3 inhibitor project, CellTiter-Glo, cherry-picked (AID 624134); assay type: functional, cell-based
# [23] = biological target: T5, Kappa-type opioid receptor; assay type: functional; remark: listed apart in the source
# [24] = cells; assay type: functional, cell-based; remark: listed apart in the source
# [25] = biological target: T4, Delta-type opioid receptor; assay: HTS Image-Based Screen for Agonists of the DOR Receptor. [Related pubchem assays (depositor defined):AID1777, AID1786, AID2133]; assay type: functional
# [26] = Shn3 3'UTR reporter inhibitors, dose response, cell-based, Clone20 osteoblasts, firefly luciferase, cherry-picked (AID 624132); assay type: functional;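 further: firefly luciferase luminescence from reporter carrying the Shn3 3'UTR in osteoblasts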
# [27] = biological target: T7, Streptokinase A (Streptococcus pyogenes serotype M1, UniProt P10520); assay: S. pyogenes streptokinase expression inhibitors, potency, dose response, plasminogen activation absorbance, OD405 (AID 1914); assay type: functional, Streptococcus pyogenes M1 GAS;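 further: secreted streptokinase activity via plasminogen activation per viability signal from cell pellet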
# T7 sequence (P10520 whole entry): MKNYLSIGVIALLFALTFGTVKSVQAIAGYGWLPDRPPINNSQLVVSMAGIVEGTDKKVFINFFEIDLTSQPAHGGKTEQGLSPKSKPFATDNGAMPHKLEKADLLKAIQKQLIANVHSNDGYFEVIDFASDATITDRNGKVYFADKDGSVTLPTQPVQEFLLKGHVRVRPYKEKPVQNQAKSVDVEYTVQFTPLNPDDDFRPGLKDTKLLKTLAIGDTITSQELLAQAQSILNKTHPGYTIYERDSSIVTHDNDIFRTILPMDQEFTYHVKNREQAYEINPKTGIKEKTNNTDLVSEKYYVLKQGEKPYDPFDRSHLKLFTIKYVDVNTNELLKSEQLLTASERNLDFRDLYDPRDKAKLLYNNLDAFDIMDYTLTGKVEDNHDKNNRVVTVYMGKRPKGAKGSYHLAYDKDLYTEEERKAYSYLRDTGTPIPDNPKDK
# [28] = growth suppression of PTEN-null colon cells, dose response, cell-based, HCT116 PTEN knockout (AID 1047); assay type: functional;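 further: HCT116 colon tumor cells with PTEN knocked out; cells exposed to compound for 60 hours before readout; potency for loss of cell viability measured by luminescence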
# [29] = inhibitors of intracellular T. cruzi replication, confirmation, NIH3T3 host cells, beta-gal luminescence (AID 2044); assay type: functional, cell-based;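 further: intracellular parasites grown in NIH/3T3 mouse fibroblasts as host cells; luminescent beta-galactosidase reporter signal from transgenic T. cruzi replicating inside host cells; inhibitors lower the luminescence signal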
# [30] = cytotoxicity in MIN6 insulinoma cells, dose response, cytotoxicity control, cell-based, mouse insulinoma (AID 2122); assay type: functional;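 further: confirmatory high-throughput counterscreen run to flag cytotoxic compounds; mouse MIN-6 beta cells carrying an insulin promoter eGFP reporter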
# [31] = insulin promoter down-regulators in MIN6 cells, imaging, high-content screening, mouse beta cells (AID 1628); assay type: functional
# [32] = test system: Streptococcus sp. 'group A'; assay: growth inhibition of control SK(-) GAS strain, dose response, counter-screen for streptokinase expression inhibitor project, luminescence, kanamycin, BacTiterGlo, confirmation (AID 1900); assay type: functional, organism-based
# [33] = microbe, parasite or virus in culture; assay type: functional; settings: Mycobacterium tuberculosis
structure (smiles),measurement,setting,value
O=C(Nc1ccc(Cl)c(Cl)c1)Nc1nnc(-c2ccncc2)s1,IC50,[1],16.2 µM (active)
same,IC50,[2],21.1 µM (active)
same,IC50,[3],3.64 µM (active)
same,CC50,[4],5.14 µM (active)
same,IC50,[5],> 64 µM (inactive)
same,IC50,[6],5.3 µM (active)
same,IC50,[7],1.56 µM (active)
Oc1ccc(CN2CCc3ccccc3C2)c2cccnc12,EC50,[8],< 0.1 µM (active)
same,AC50,[9],1.83 µM (active)
same,EC50,[10],> 31.5 µM (inactive)
same,AC50,[11],0.971 µM (active)
same,IC50,[12],> 32 µM (inactive)
same,EC50,[13],4.63 µM (active)
same,EC50,[14],5.88 µM (active)
same,EC50,[15],13.8 µM (active)
same,EC50,[16],1.52 µM (active)
same,EC50,[17],0.528 µM (active)
same,IC50,[18],14 µM (active)
same,EC50,[19],7.5 µM (active)
same,IC50,[20],5.76 µM (active)
same,EC50,[21],> 32 µM (inactive)
same,AC50,[22],1.69 µM (active)
same,pIC50,[23],< 4.49
same,EC50,[24],> 350 µM (not active)
same,EC50,[25],> 32 µM (inactive)
same,AC50,[26],0.673 µM (active)
same,EC50,[27],> 150 µM (not active)
same,EC50,[28],1.82 µM (active)
same,EC50,[29],0.529 µM (active)
same,IC50,[30],1.69 µM (active)
same,IC50,[31],1.96 µM (active)
same,EC50,[32],6.14 µM (active)
same,CC50,[33],1.62 µM (active)
